Data from patent publication US12471596B2 (priority 2019, dated 2025).

Test system: Phytophthora infestans
Experiment: microbe, parasite or virus in culture
Format: cell-based
Settings: in Secale cereale, 168 h, read-out: control compared to the untreated check

Row | SMILES | inhibition of growth at 30 ppm [%]
1 | O=C(COc1cnc(C(F)(F)F)cn1)N1CCC(c2nc(C3=NOC(c4c(Cl)cccc4C(F)(F)F)C3)cs2)CC1 (centres unmarked) [Compound 69, 1-(4-(4-(5-(2-chloro-6-(trifluoromethyl)phenyl)-4,5-dihydroisoxazol-3-yl)thiazol-2-yl)piperidin-1-yl)-2-((5-(trifluoromethyl)pyrazin-2-yl)oxy)ethan-1-one] | ≥ 70
2 | O=C(COc1nccc(C(F)(F)F)n1)N1CCC(c2nc(C3=NOC(c4c(Cl)ccc(F)c4F)C3)cs2)CC1 (centres unmarked) [Compound 70, 1-(4-(4-(5-(6-chloro-2,3-difluorophenyl)-4,5-dihydroisoxazol-3-yl)thiazol-2-yl)piperidin-1-yl)-2-((4-(trifluoromethyl)pyrimidin-2-yl)oxy)ethan-1-one] | ≥ 70
3 | COc1cncnc1OCC(=O)N1CCC(c2nc(C3=NOC(c4c(Cl)cccc4C#N)C3)cs2)CC1 (centres unmarked) [Compound 71, 3-chloro-2-(3-(2-(1-(2-((5-methoxypyrimidin-4-yl)oxy)acetyl)piperidin-4-yl)thiazol-4-yl)-4,5-dihydroisoxazol-5-yl)benzonitrile] | ≥ 70
4 | COc1cncnc1OCC(=O)N1CCC(c2nc(C3=NOC(c4c(Cl)cccc4OS(C)(=O)=O)C3)cs2)CC1 (centres unmarked) [Compound 72, 3-chloro-2-(3-(2-(1-(2-((5-methoxypyrimidin-4-yl)oxy)acetyl)piperidin-4-yl)thiazol-4-yl)-4,5-dihydroisoxazol-5-yl)phenyl methanesulfonate] | ≥ 70
5 | COc1cncnc1OCC(=O)N1CCC(c2nc(C3=NOC(c4c(Cl)cccc4Cl)C3)cs2)CC1 (centres unmarked) [Compound 73, 1-(4-(4-(5-(2,6-dichlorophenyl)-4,5-dihydroisoxazol-3-yl)thiazol-2-yl)piperidin-1-yl)-2-((5-methoxypyrimidin-4-yl)oxy)ethan-1-one] | ≥ 70
6 | COc1cncnc1OCC(=O)N1CCC(c2nc(C3=NOC(c4c(F)cccc4Cl)C3)cs2)CC1 (centres unmarked) [Compound 74, 1-(4-(4-(5-(2-chloro-6-fluorophenyl)-4,5-dihydroisoxazol-3-yl)thiazol-2-yl)piperidin-1-yl)-2-((5-methoxypyrimidin-4-yl)oxy)ethan-1-one] | ≥ 70
7 | COc1cncnc1OCC(=O)N1CCC(c2nc(C3=NOC(c4c(Cl)cc(Cl)cc4Cl)C3)cs2)CC1 (centres unmarked) [Compound 75, 2-((5-methoxypyrimidin-4-yl)oxy)-1-(4-(4-(5-(2,4,6-trichlorophenyl)-4,5-dihydroisoxazol-3-yl)thiazol-2-yl)piperidin-1-yl)ethan-1-one] | ≥ 70
8 | COc1cncnc1OCC(=O)N1CCC(c2nc(C3=NOC(c4c(F)cccc4F)C3)cs2)CC1 (centres unmarked) [Compound 76, 1-(4-(4-(5-(2,6-difluorophenyl)-4,5-dihydroisoxazol-3-yl)thiazol-2-yl)piperidin-1-yl)-2-((5-methoxypyrimidin-4-yl)oxy)ethan-1-one] | ≥ 70
9 | COc1cncnc1OCC(=O)N1CCC(c2nc(C3=NOC(c4cc(Cl)ccc4Cl)C3)cs2)CC1 (centres unmarked) [Compound 77, 1-(4-(4-(5-(2,5-dichlorophenyl)-4,5-dihydroisoxazol-3-yl)thiazol-2-yl)piperidin-1-yl)-2-((5-methoxypyrimidin-4-yl)oxy)ethan-1-one] | ≥ 70
10 | COc1cncnc1OCC(=O)N1CCC(c2nc(C3=NOC(c4c(F)cccc4Br)C3)cs2)CC1 (centres unmarked) [Compound 78, 1-(4-(4-(5-(2-bromo-6-fluorophenyl)-4,5-dihydroisoxazol-3-yl)thiazol-2-yl)piperidin-1-yl)-2-((5-methoxypyrimidin-4-yl)oxy)ethan-1-one] | ≥ 70
11 | COc1cncnc1OCC(=O)N1CCC(c2nc(C3=NOC(c4c(O)cccc4Cl)C3)cs2)CC1 (centres unmarked) [Compound 79, 1-(4-(4-(5-(2-chloro-6-hydroxyphenyl)-4,5-dihydroisoxazol-3-yl)thiazol-2-yl)piperidin-1-yl)-2-((5-methoxypyrimidin-4-yl)oxy)ethan-1-one] | ≥ 70
12 | COc1cncnc1OCC(=O)N1CCC(c2nc(C3=NOC(c4c(Cl)cccc4C(F)(F)F)C3)cs2)CC1 (centres unmarked) [Compound 80, 1-(4-(4-(5-(2-chloro-6-(trifluoromethyl)phenyl)-4,5-dihydroisoxazol-3-yl)thiazol-2-yl)piperidin-1-yl)-2-((5-methoxypyrimidin-4-yl)oxy)ethan-1-one] | ≥ 70
13 | COc1cncnc1OCC(=O)N1CCC(c2nc(C3=NOC(c4c(Cl)ccc(F)c4F)C3)cs2)CC1 (centres unmarked) [Compound 81, 1-(4-(4-(5-(6-chloro-2,3-difluorophenyl)-4,5-dihydroisoxazol-3-yl)thiazol-2-yl)piperidin-1-yl)-2-((5-methoxypyrimidin-4-yl)oxy)ethan-1-one] | ≥ 70
14 | COc1ccnc(OCC(=O)N2CCC(c3nc(C4=NOC(c5c(Cl)cccc5C(F)(F)F)C4)cs3)CC2)n1 (centres unmarked) [Compound 82, 1-(4-(4-(5-(2-chloro-6-(trifluoromethyl)phenyl)-4,5-dihydroisoxazol-3-yl)thiazol-2-yl)piperidin-1-yl)-2-((4-methoxypyrimidin-2-yl)oxy)ethan-1-one] | ≥ 70
15 | COc1ccnc(OCC(=O)N2CCC(c3nc(C4=NOC(c5c(O)cccc5Cl)C4)cs3)CC2)n1 (centres unmarked) [Compound 83, 1-(4-(4-(5-(2-chloro-6-hydroxyphenyl)-4,5-dihydroisoxazol-3-yl)thiazol-2-yl)piperidin-1-yl)-2-((4-methoxypyrimidin-2-yl)oxy)ethan-1-one] | ≥ 70
16 | O=C(COc1nccc(C(F)(F)F)n1)N1CCC(c2nc(C3=NOC(c4c(Cl)cccc4C(F)(F)F)C3)cs2)CC1 (centres unmarked) [Compound 84, 1-(4-(4-(5-(2-chloro-6-(trifluoromethyl)phenyl)-4,5-dihydroisoxazol-3-yl)thiazol-2-yl)piperidin-1-yl)-2-((4-(trifluoromethyl)pyrimidin-2-yl)oxy)ethan-1-one] | ≥ 70
17 | O=C(COc1nccc(C(F)(F)F)n1)N1CCC(c2nc(C3=NOC(c4c(O)cccc4Cl)C3)cs2)CC1 (centres unmarked) [Compound 85, 1-(4-(4-(5-(2-chloro-6-hydroxyphenyl)-4,5-dihydroisoxazol-3-yl)thiazol-2-yl)piperidin-1-yl)-2-((4-(trifluoromethyl)pyrimidin-2-yl)oxy)ethan-1-one] | ≥ 70
18 | O=C(COc1cnc(C(F)(F)F)cn1)N1CCC(c2nc(C3=NOC(c4c(Cl)cccc4Cl)C3)cs2)CC1 (centres unmarked) [Compound 88, 1-(4-(4-(5-(2,6-dichlorophenyl)-4,5-dihydroisoxazol-3-yl)thiazol-2-yl)piperidin-1-yl)-2-((5-(trifluoromethyl)pyrazin-2-yl)oxy)ethan-1-one] | ≥ 70
19 | N#Cc1cccc(Cl)c1C1CC(c2csc(C3CCN(C(=O)COc4cnc(C(F)(F)F)cn4)CC3)n2)=NO1 (centres unmarked) [Compound 93, 3-chloro-2-(3-(2-(1-(2-((5-(trifluoromethyl)pyrazin-2-yl)oxy)acetyl)piperidin-4-yl)thiazol-4-yl)-4,5-dihydroisoxazol-5-yl)benzonitrile] | ≥ 70
20 | N#Cc1nccc(OCC(=O)N2CCC(c3nc(C4=NOC(c5c(O)cccc5Cl)C4)cs3)CC2)n1 (centres unmarked) [Compound 95, 4-(2-(4-(4-(5-(2-chloro-6-hydroxyphenyl)-4,5-dihydroisoxazol-3-yl)thiazol-2-yl)piperidin-1-yl)-2-oxoethoxy)pyrimidine-2-carbonitrile] | ≥ 70
